Measured values: ChEMBL document CHEMBL5625222, “Design, synthesis, and biological evaluation of 1,6-naphthyridine-2-one derivatives as novel FGFR4 inhibitors for the treatment of colorectal cancer” (Eur J Med Chem, 2023)
Active and inactive are the calls of the source.

Experiments:
[1] = Toxicity in BALB/c mouse xenografted with human HCT-116 cells assessed as change in serum AST level at 10 mg/kg,ip administrated for 2 weeks; format: organism-based; conditions: in vivo, 336 h
[2] = Toxicity in ICR mouse assessed as change in heart weight at 20 mg/kg,po administrated for 1 week; format: organism-based; conditions: in vivo, 168 h, time 1 weeks
SW480 [3] = assay: Anti-migration activity in human SW480 cells assessed as change in FAK expression at 3 to 12 uM by Western blotting analysis; format: functional, cell-based; conditions: dose 3-12 µM
[4] = Toxicity in BALB/c mouse xenografted with human HCT-116 cells assessed as change in liver weight at 20 mg/kg,ip administrated for 2 weeks; format: organism-based; conditions: in vivo, 336 h
SW480 [5] = assay: Antiproliferative activity against human SW480 cells assessed as inhibition of colony formation incubated for 2 weeks by crystal violet staining method; format: functional, cell-based
HCT-116 [6] = assay: Antitumor activity against human HCT-116 cells xenografted in BALB/c mouse assessed as upregulation of E-cad expression in tumor at 20 mg/kg,ip administrated for 2 weeks by Western blotting analysis; format: functional, organism-based
RKO [7] = assay: Anti-migration activity in human RKO cells assessed as upregulation of E-cad expression by Western blotting analysis; format: functional, cell-based
[8] = target: Fibroblast growth factor receptor 2 (Homo sapiens, UniProt P21802); assay: Inhibition of FGFR2 (unknown origin) kinase activity
Chain of Fibroblast growth factor receptor 2 (P21802 whole entry): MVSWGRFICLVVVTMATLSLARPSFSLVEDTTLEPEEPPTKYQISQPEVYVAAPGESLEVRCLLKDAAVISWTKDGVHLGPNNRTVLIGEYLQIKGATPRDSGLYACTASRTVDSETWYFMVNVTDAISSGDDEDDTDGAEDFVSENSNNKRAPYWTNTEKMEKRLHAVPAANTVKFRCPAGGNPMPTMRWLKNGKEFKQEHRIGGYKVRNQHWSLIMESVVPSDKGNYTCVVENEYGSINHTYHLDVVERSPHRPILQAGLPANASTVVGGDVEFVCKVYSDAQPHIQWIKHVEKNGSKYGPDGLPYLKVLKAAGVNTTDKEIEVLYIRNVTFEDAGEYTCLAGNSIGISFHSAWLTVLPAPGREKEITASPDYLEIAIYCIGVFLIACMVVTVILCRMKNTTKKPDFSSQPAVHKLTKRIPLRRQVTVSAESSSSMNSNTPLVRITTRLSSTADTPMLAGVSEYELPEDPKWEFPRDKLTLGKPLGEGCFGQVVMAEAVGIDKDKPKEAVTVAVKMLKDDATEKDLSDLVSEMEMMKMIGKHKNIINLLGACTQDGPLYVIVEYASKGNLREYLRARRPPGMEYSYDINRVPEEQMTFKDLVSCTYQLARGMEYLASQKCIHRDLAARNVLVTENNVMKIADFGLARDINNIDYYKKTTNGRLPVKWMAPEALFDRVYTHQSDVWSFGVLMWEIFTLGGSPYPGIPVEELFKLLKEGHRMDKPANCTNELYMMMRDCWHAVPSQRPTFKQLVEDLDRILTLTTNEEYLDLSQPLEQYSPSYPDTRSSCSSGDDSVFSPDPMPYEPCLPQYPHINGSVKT

RKO [9] = assay: cells; conditions: Homo sapiens, 48 h
Description: Antiproliferative activity against human RKO cells assessed as inhibition of cell growth incubated for 48 hrs by MTT assay

[10] = Toxicity in BALB/c mouse xenografted with human HCT-116 cells assessed as histopathological change in liver at 20 mg/kg,ip administrated for 2 weeks by hematoxylin and eosin staining based analysis; format: organism-based; conditions: in vivo, 336 h
RKO [11] = assay: Anti-migration activity in human RKO cells assessed as loss of actin cytoskeletal fibers at 3 to 12 uM by immunofluorescence assay; format: functional, cell-based; conditions: dose 3-12 µM
[12] = Toxicity in BALB/c mouse xenografted with human HCT-116 cells assessed as change in kidney weight at 20 mg/kg,ip administrated for 2 weeks; format: organism-based; conditions: in vivo, 336 h
[13] = Hepatotoxicity in ICR mouse assessed as change in serum AST level at 20 mg/kg,po administrated for 1 week; format: toxicity, organism-based; conditions: in vivo, 168 h, time 1 weeks
HCT-116 [14] = assay: Antitumor activity against human HCT-116 cells xenografted in BALB/c mouse assessed as downregulation of FGFR4 signalling pathway in tumor at 10 mg/kg,ip administrated for 2 weeks by Western blotting analysis; format: functional, organism-based
HCT-116 [15] = assay: Antitumor activity against human HCT-116 cells xenografted in BALB/c mouse assessed as downregulation of FAK expression in tumor at 10 mg/kg,ip administrated for 2 weeks by Western blotting analysis; format: functional, organism-based
RKO [16] = assay: Induction of cell cycle arrest in human RKO cells assessed as accumulation of cells at G2/M phase incubated for 48 hrs by propidium iodide staining based flow cytometry; format: functional
[17] = Toxicity in ICR mouse assessed as histopathological change in liver at 60 mg/kg,po administrated for 1 week by hematoxylin and eosin staining analysis; format: organism-based; conditions: in vivo, 168 h, time 1 weeks
[18] = Toxicity in BALB/c mouse xenografted with human HCT-116 cells assessed as change in body weight at 20 mg/kg,ip administrated for 2 weeks; format: organism-based; conditions: in vivo, 336 h
RKO [19] = assay: Anti-migration activity in human RKO cells assessed as downregulation of FAK phosphorylation by Western blotting analysis; format: functional, cell-based
HCT-116 [20] = assay: Antitumor activity against human HCT-116 cells xenografted in BALB/c mouse assessed as decrease in Ki67 expression in tumor tissue at ip administrated for 2 weeks by immunohistochemical analysis; format: functional, organism-based
[21] = Toxicity in BALB/c mouse xenografted with human HCT-116 cells assessed as change in liver weight at 10 mg/kg,ip administrated for 2 weeks; format: organism-based; conditions: in vivo, 336 h
[22] = target: Fibroblast growth factor receptor 1 (Homo sapiens, UniProt P11362); assay: Inhibition of FGFR1 (unknown origin) kinase activity
Chain of Fibroblast growth factor receptor 1 (P11362 whole entry): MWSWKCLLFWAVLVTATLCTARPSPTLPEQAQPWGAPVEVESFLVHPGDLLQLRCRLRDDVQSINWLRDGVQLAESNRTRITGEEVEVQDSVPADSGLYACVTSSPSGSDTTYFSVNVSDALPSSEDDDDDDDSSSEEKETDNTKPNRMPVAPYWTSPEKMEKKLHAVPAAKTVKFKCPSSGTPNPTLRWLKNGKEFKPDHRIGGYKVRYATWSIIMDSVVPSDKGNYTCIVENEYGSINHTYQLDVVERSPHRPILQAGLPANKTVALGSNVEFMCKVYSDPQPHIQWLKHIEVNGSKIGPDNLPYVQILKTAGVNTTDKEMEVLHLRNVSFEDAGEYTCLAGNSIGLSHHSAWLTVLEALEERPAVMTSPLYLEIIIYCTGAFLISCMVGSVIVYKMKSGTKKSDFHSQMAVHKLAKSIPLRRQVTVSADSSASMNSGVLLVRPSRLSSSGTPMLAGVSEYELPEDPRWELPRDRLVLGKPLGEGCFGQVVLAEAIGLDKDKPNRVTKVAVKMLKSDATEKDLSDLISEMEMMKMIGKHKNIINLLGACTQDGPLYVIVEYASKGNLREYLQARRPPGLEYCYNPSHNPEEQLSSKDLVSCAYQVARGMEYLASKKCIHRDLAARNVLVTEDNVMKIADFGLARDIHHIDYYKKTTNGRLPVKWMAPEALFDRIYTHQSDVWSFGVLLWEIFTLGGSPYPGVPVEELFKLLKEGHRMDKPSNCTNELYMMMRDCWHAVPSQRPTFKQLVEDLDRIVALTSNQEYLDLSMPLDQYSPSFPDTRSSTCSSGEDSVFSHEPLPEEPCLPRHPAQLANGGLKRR

[23] = Toxicity in ICR mouse assessed as change in lung weight at 60 mg/kg,po administrated for 1 week; format: organism-based; conditions: in vivo, 168 h, time 1 weeks
HCT-116 [24] = assay: Antitumor activity against human HCT-116 cells xenografted in BALB/c mouse assessed as change in cell morphology at 10 mg/kg,ip administrated for 2 weeks by hematoxylin and eosin staining based analysis; format: functional, organism-based
HCT-116 [25] = assay: Induction of apoptosis in human HCT-116 cells assessed as downregulation of ratio of Bcl-2/Bax expression at 3 to 12 uM incubated for 48 hrs by Western blotting analysis; format: functional, cell-based; conditions: dose 3-12 µM
[26] = Toxicity in BALB/c mouse xenografted with human HCT-116 cells assessed as change in heart weight at 20 mg/kg,ip administrated for 2 weeks; format: organism-based; conditions: in vivo, 336 h
SW480 [27] = assay: Induction of cell cycle arrest in human SW480 cells assessed as accumulation of cells at G2/M phase incubated for 48 hrs by propidium iodide staining based flow cytometry; format: functional
[28] = Toxicity in ICR mouse assessed as histopathological change in kidney at 20 mg/kg,po administrated for 1 week by hematoxylin and eosin staining analysis; format: organism-based; conditions: in vivo, 168 h, time 1 weeks

C=CC(=O)NCCCn1c(=O)c(-c2c(Cl)c(OC)cc(OC)c2Cl)cc2cnc(Nc3c(C)cccc3NC(=O)C=C)cc21
11600 nM: IC50 (RKO [9])
643 nM: IC50 [22]
528 nM: IC50 [8]
active: Activity (SW480 [5]) Dose-Dependent Effect | Activity (HCT-116 [6]) | Activity (RKO [7]) Dose-Dependent Effect | Activity (RKO [11]) | Activity (HCT-116 [14]) | Activity (HCT-116 [15]) | Activity (RKO [16]) Dose-Dependent Effect | Activity (RKO [19]) Dose-Dependent Effect | Activity (HCT-116 [20]) Dose-Dependent Effect | Activity (HCT-116 [24]) | Activity (HCT-116 [25]) | Activity (SW480 [27]) Dose-Dependent Effect
Non-Toxic: Activity [1] | Activity [2] | Activity [4] | Activity [10] | Activity [12] | Activity [13] | Activity [17] | Activity [18] | Activity [21] | Activity [23] | Activity [26] | Activity [28]
inactive: Activity (SW480 [3])
